Measurements taken from US20040110771A1, “7-(r)-aminotriazolopyrimidines, the production thereof and use of the same for combatting phytopathogenic fungi” (priority 2000, published 2004).

How the values were obtained:
Assay type in all cases: in vivo
[1] = system: Puccinia recondita; test: Curative activity against brown rust of wheat caused by Puccinia recondita; conditions: curative spray 24 h after inoculation, wheat seedlings "Kanzler", 7 days
Method in brief: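 Wheat seedlings (cv. Kanzler) inoculated with brown rust spores and held 24 h at 90–95% humidity and 20–22°C, then sprayed to runoff with the emulsified compound the next day. Rust development on leaves scored after 7 days in greenhouse at 20–22°C and 65–70% relative humidity.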

[2] = system: Septoria tritici; test: Protective activity against Septoria foliar blotch disease of wheat caused by Septoria tritici; conditions: wheat seedlings "Riband", inoculated 24 h after spraying, 2 weeks
Description: The active compounds were prepared separately or jointly as a 10% strength emulsion in a mixture of 70% by weight of cyclohexanone, 20% by weight of Nekanil® LN (Lutensol® AP6, wetting agent having emulsifying and dispersing action based on ethoxylated alkylphenols) and 10% by weight of Wettol® EM (nonionic emulsifier based on ethoxylated castor oil) and diluted with water to the desired concentration.
Leaves of potted wheat seedlings of the cultivar “Riband” were sprayed to runoff point with an aqueous preparation of active compound which had been prepared from a stock solution made of 10% of active compound, 85% of cyclohexanone and 5% of emulsifier. 24 hours after the spray coating had dried on, they were inoculated with an aqueous spore suspension of Septoria tritici. The suspension contained 2.0×10^6 spores/ml. The test plants were then placed in a greenhouse at 18-22° C. and a relative atmospheric humidity of close to 100%. After 2 weeks, the extent of the development of the disease was determined visually in % infection of the entire leaf area.

[3] = system: Pyrenophora teres; test: Activity against net blotch of barley caused by Pyrenophora teres; conditions: barley seedlings "Igri", inoculated 24 h after spraying, 6 days
Method in brief: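 Disease was read as visually estimated % infection of total leaf area 6 days after inoculation (greenhouse, 20-24° C, 95-100% humidity). Seedlings of cultivar Igri had been sprayed to runoff point with diluted compound emulsion and inoculated with a P. teres spore suspension 24 h later.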

[4] = system: Blumeria graminis forma specialis tritici; test: Activity against mildew of wheat caused by Blumeria graminis forma specialis tritici; conditions: wheat seedlings "Kanzler", dusted with spores 24 h after spraying, 7 days
Method in brief: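 Protective test: Blumeria graminis f. sp. tritici spores dusted onto cv. Kanzler wheat seedling leaves 24 h after spray deposit of aqueous compound preparation had dried. After 7 days in greenhouse (20-24° C., 60-90% relative humidity), infection estimated by eye as % of total leaf area.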

Compound | % infection of the leaves after application of an aqueous preparation comprising . . . ppm of active compound ([1]; 250 ppm) | % infection of the leaves after application of an aqueous preparation comprising . . . ppm of active compound ([2]; 16 ppm) | % infection of the leaves after application of an aqueous preparation comprising . . . ppm of active compound ([2]; 63 ppm) | % infection of the leaves after application of an aqueous preparation comprising . . . ppm of active compound ([2]; 250 ppm) | % infection of the leaves after application of an aqueous preparation comprising . . . ppm of active compound ([3]; 16 ppm) | % infection of the leaves after application of an aqueous preparation comprising . . . ppm of active compound ([3]; 63 ppm) | % infection of the leaves after application of an aqueous preparation comprising . . . ppm of active compound ([4]; 16 ppm) | % infection of the leaves after application of an aqueous preparation comprising . . . ppm of active compound ([4]; 63 ppm) | % infection of the leaves after application of an aqueous preparation comprising . . . ppm of active compound ([4]; 250 ppm) | % infection of the leaves after application of an aqueous preparation comprising . . . ppm of active compound ([1]; 16 ppm) | % infection of the leaves after application of an aqueous preparation comprising . . . ppm of active compound ([1]; 63 ppm) | % infection of the leaves after application of an aqueous preparation comprising . . . ppm of active compound ([3]; 250 ppm)
CC(Nc1c(-c2ccccc2Cl)c(Cl)nc2ncnn12)C(C)(C)C (single isomer, unassigned) [I.-44a] | 60% | 60% | 7% | 7% | 60% | 7% | 50% | 30% | 30% | – | – | –
CC(C)[C@@H](C)Nc1c(-c2c(F)cccc2Cl)c(Cl)nc2ncnn12 [I.-2] | 5% | 0% | 0% | 0% | – | – | – | 40% | 40% | 15% | 5% | –
CCC(C)Nc1c(-c2c(F)cccc2F)c(Cl)nc2ncnn12 (centres unmarked) [I.-4] | 10% | 20% | 15% | 3% | – | – | 80% | 60% | 60% | 40% | 20% | –
CC(C)C(C)Nc1c(-c2c(F)cccc2F)c(Cl)nc2ncnn12 (centres unmarked) [I.-5] | 10% | 15% | 15% | 15% | 20% | – | 40% | 40% | 20% | – | 10% | –
CCC(C)Nc1c(-c2c(Cl)cccc2Cl)c(Cl)nc2ncnn12 (centres unmarked) [I.-7] | – | 70% | 30% | 15% | 80% | 30% | – | – | 60% | 40% | – | 15%
CC[C@@H](C)Nc1c(-c2c(F)cc(OC)cc2F)c(Cl)nc2ncnn12 [I.-16] | – | – | 70% | 70% | – | – | 40% | 40% | 20% | 7% | 0% | –
CC(C)C(C)Nc1c(-c2c(F)cccc2Cl)c(Cl)nc2ncnn12 [comparison (S)-amine of I.-2] | 100% | 90% | 90% | 90% | – | – | – | 100% | 100% | 100% | 100% | –
CC[C@H](C)Nc1c(-c2c(F)cccc2F)c(Cl)nc2ncnn12 [comparison (S)-amine of I.-4] | 100% | 100% | 100% | 90% | – | – | 100% | 100% | 100% | 100% | 100% | –
CC[C@H](C)Nc1c(-c2c(F)cc(OC)cc2F)c(Cl)nc2ncnn12 [comparison (S)-amine of I.-16] | – | – | 90% | 90% | – | – | 100% | 100% | 100% | 100% | 5% | –
CC(C)[C@H](C)Nc1c(-c2c(F)c(F)c(F)c(F)c2F)c(Cl)nc2ncnn12 [comparison (S)-amine of I.-20] | – | 90% | 90% | 90% | 100% | 40% | 80% | 40% | 40% | – | – | 7%
